# According to patent publication US11833160B2, “Ursodeoxycholic acid derivatives as HDAC inhibitors for the treatment of polycystic diseases” (UNIVERSIDAD DEL PAIS VASCO/EUSKAL HERRIKO UNIBERTSITATEA, priority 2017, dated 2023):
# Tests used:
# OCT1 = target: T1, OCT1 (Homo sapiens, UniProt O15245); experiment: Uptake study in HepG2 cells overexpressing OCT1; type: in vitro ADME
# T1 construct: expressed in transfected cells; host or cells: HepG2 cells
# T1 sequence (O15245 1-554): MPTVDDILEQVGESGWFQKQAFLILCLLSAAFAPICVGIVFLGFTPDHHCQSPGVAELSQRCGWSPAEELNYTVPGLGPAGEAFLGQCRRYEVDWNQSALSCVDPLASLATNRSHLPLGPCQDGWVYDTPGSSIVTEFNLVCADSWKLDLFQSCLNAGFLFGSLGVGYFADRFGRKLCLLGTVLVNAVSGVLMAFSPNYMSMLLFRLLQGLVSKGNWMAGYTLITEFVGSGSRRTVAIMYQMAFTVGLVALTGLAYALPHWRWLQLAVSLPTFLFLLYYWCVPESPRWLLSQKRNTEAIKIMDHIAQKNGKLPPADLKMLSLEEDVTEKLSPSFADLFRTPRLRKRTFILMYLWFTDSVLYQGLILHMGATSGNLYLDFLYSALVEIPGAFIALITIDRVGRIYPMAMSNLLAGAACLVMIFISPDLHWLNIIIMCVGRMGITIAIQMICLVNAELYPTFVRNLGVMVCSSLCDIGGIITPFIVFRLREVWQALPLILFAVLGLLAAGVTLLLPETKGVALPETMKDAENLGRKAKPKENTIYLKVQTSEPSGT
# From the text: The bile acid and organic cation transporters expressed in hepatocytes and cholangiocytes were overexpressed in HepG2 cells (OCT1) and CHO cells (OCT3). The efficacy of the process was confirmed by means of measuring the abundance of mRNA (qPCR), protein (WB), and the correct insertion in the plasma membrane (immunofluorescence). The uptake studies included comparing the uptake efficiency of the compound with respect to dihydroethidium (DHE) in the case of OCT3, and sorafenib in the case of OCT1 (positive controls), as well as the sensitivity of the process to substrate inhibition induced by the joint administration of the compound and quinine. The cell content of all the compounds was determined by means of triple quadrupole HPLC-MS/MS after extraction thereof from the cell system used in each case.
# OATP1B1 = target: T2, OATP1B1 (Homo sapiens, UniProt Q9Y6L6); experiment: Uptake study, transporter OATP1B1 (data not shown); type: in vitro ADME
# T2 construct: expressed in transfected cells
# T2 sequence (Q9Y6L6 1-691): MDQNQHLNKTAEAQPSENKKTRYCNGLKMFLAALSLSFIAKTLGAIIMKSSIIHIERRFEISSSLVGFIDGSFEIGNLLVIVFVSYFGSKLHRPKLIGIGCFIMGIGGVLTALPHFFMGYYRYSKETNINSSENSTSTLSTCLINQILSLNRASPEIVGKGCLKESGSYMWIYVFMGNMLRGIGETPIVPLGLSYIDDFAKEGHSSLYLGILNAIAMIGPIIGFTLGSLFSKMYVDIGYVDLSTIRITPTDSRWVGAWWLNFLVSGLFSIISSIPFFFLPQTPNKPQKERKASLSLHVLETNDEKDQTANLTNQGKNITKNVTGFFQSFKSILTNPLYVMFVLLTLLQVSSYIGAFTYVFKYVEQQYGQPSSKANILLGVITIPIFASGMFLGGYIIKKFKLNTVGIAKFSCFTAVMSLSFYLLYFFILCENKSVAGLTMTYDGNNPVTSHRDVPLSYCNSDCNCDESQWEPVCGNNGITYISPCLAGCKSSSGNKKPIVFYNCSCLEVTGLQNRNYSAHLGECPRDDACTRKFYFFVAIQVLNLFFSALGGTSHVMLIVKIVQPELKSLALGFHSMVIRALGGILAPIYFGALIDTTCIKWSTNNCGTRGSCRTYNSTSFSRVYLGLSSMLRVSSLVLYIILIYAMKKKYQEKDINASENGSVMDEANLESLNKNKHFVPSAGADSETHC
# [1] = system: polycystic human cholangiocytes; experiment: CFSE proliferation protocol by flow cytometry; type: cell-based
# Method: The proliferation of polycystic human cholangiocytes at 48 hours in the absence or presence of different doses of compound Ia (10, 50, 100, μM) in a quiescence culture medium was analyzed. To that end, the CFSE proliferation protocol (Invitrogen) was used using flow cytometry.
# [2] = system: α-acetylated-tubulin in polycystic human cholangiocytes; experiment: Immunoblot of α-acetylated-tubulin; type: cell-based; conditions: different doses
# Method: The expression of α-acetylated-tubulin (Ac-α-tubulin) and lysine 9-acetylated histone 3 (Ac-H3K9) in polycystic human cholangiocytes in culture was analyzed using Ac-α-tubulin-specific primary antibodies (1:2000, Sigma-Aldrich) and H3K9-specific primary antibodies (1:500, Cell Signaling Technology) and a peroxidase-conjugated secondary antibody (1:5000, Sigma-Aldrich). The expression of each protein was quantified using a chemiluminescence system (Amersham, GE Healthcare). The GAPDH protein was used as loading control.
# PCK rats = experiment: Chronic treatment of PCK rats (animal model of PLD), liver transaminase ALT; type: in vivo, rat; conditions: 7 mg/kg/day, 2 months
# Method: PCK rats were chronically treated (2 months) with compound Ia (7 mg/kg/day).
# [3] = system: polycystic human cholangiocytes; experiment: Primary cilium length (cilium staining, confocal microscopy), polycystic cells; type: cell-based; conditions: after treatment
# Method: Cilium staining. Cells cultured on cover slips were washed with PBS, fixed with methanol, and blocked for one hour in a blocking buffer at room temperature. The γ-tubulin primary antibodies (1:100; Sigma-Aldrich, St Louis, MO) and acetylated α-tubulin primary antibodies (1:1000; Sigma-Aldrich) or IFT88 primary antibodies (1:100; ProteinTech, Rosemont, IL, USA) were incubated overnight at 4° C. After washing, Alexa Fluor 594 and 488 secondary antibodies were combined with the primary antibodies (Life Technologies, Carlsbad, CA, USA) and incubated for 2 hours at room temperature. The cover slips were placed on slides with Prolong Gold Antifade with Dapi (Invitrogen, Carlsbad, CA, USA). The slides were observed and images were taken using laser scanning confocal microscopy with a 60× objective (NIKON C1si Confocal Spectral Imaging System, NIKON Instruments Co., Melville, NY, USA). The field was magnified 4× to observe individual cilia. The images were opened with EZ-C1 3.90 Freeviewer and a scale bar was added. The images were converted to Tiff files and quantified using ImageJ Software. The scale bar saved in the image was measured and the scale established. Using the freehand tool, the cilia were traced and measurements taken.
compound,measurement,setting,value
C[C@H](CCC(=O)NCc1ccc(C(=O)NO)cc1)[C@H]1CC[C@H]2[C@@H]3[C@@H](O)C[C@@H]4C[C@H](O)CC[C@]4(C)[C@H]3CC[C@]12C [Compound Ia],effect of quinine (OCT1 inhibitor) on the OCT1 transport,OCT1; joint administration with quinine,inhibited by the presence of quinine
same,transport through OCT1,"OCT1; liver cells (HepG2 overexpressing OCT1), HPLC-MS/MS cell content",specifically transported through OCT1
same,transport through OATP1B1,OATP1B1,not through ASBT or OATP1B1
same,proliferation of polycystic human cholangiocytes,"[1]; 48 hours, 10, 50, 100 μM, quiescence culture medium",inhibits the hyper-proliferation of polycystic human cholangiocytes in vitro in a dose-dependent manner
same,inhibition of proliferation compared with UDCA,"[1]; 48 hours, UDCA at 100 μM",with a higher intensity than UDCA
same,expression of α-acetylated-tubulin,[2],increases significantly and in a dose-dependent manner
same,levels of liver transaminase ALT,PCK rats,significantly reduced
same,"length of the cilia, polycystic human cholangiocytes",[3],significantly increased
